Data: US20200069648A1, “HALOALLYLAMINE PYRAZOLE DERIVATIVE INHIBITORS OF LYSYL OXIDASES AND USES THEREOF” (Pharmaxis Ltd., priority 2017, published 2020)
Where a name gives a salt, the structure may show the parent alone.

For Cc1nn(Cc2ccc(S(C)(=O)=O)c(Cl)c2)c(C)c1C/C(F)=C/CN (as salt: hydrochloride) [Compound 24, (Z)-4-(1-(3-chloro-4-(methylsulfonyl)benzyl)-3,5-dimethyl-1H-pyrazol-4-yl)-3-fluorobut-2-en-1-amine hydrochloride], which melting point is on record?
The melting point was 92 to 94 °C.

With CNS(=O)(=O)c1cc(F)c(Cn2nc(C)c(C/C(F)=C/CN)c2C)cc1F (as salt: hydrochloride) [Compound 26, (Z)-4-((4-(4-amino-2-fluorobut-2-en-1-yl)-3,5-dimethyl-1H-pyrazol-1-yl)methyl)-2,5-difluoro-N-methylbenzenesulfonamide hydrochloride] as the compound, how does the melting point read?
Its melting point is 100 to 103 °C.

For CCOC(=O)c1c(Cc2ccc(S(=O)(=O)N(C)C)cc2)c(C)nn1C/C(F)=C/CN (as salt: hydrochloride) [Compound 27, (Z)-ethyl 1-(4-amino-2-fluorobut-2-enyl)-4-(4-(N,N-dimethylsulfamoyl)benzyl)-3-methyl-1H-pyrazole-5-carboxylate hydrochloride], which melting point is on record?
The melting point was 157 to 159 °C.

Which melting point does the source give for Cc1nn(C/C(F)=C/CN)c(C(=O)N(C)C)c1Cc1ccc(S(=O)(=O)N(C)C)cc1 (as salt: hydrochloride) [Compound 29, (Z)-1-(4-amino-2-fluorobut-2-enyl)-4-(4-(N,N-dimethylsulfamoyl)benzyl)-N,N,3-trimethyl-1H-pyrazole-5-carboxamide hydrochloride] here?
The melting point was 77 to 80 °C.

For Cc1nn(C/C(F)=C/CN)c(C(=O)O)c1Cc1ccc(S(=O)(=O)N(C)C)cc1 (as salt: hydrochloride) [Compound 30, (Z)-1-(4-amino-2-fluorobut-2-enyl)-4-(4-(N,N-dimethylsulfamoyl)benzyl)-3-methyl-1H-pyrazole-5-carboxylic acid hydrochloride], which melting point is on record?
The melting point was 164 to 166 °C.

Which melting point does the source give for Cc1c(Cc2ccc(S(=O)(=O)N(C)C)cc2)c(C(=O)O)nn1C/C(F)=C/CN (as salt: hydrochloride) [Compound 31, (Z)-1-(4-amino-2-fluorobut-2-enyl)-4-(4-(N,N-dimethylsulfamoyl)benzyl)-5-methyl-1H-pyrazole-3-carboxylic acid hydrochloride] here?
The melting point was 262 to 264 °C.
